Converted amounts (≈) assume the structure as drawn.

As a reminder, the solubility is the dissolved amount per volume that the medium holds. As usually defined, the viscosity is the resistance of a fluid to flow. High values mean a thick fluid, low ones a thin fluid.

The conditions of series [1]: in a carbonate-based electrolyte; cited from earlier work.
The nature of series [2]: Cyclic voltammetry in non-aqueous carbonate electrolyte. In kind it is physicochemical. Particulars: 10 mM in 1.5 M LiPF6 in EC/EMC 3:7 (v/v); glassy carbon working electrode, lithium metal counter and reference; iR-correction. The method, then: FIG. 3 provides cyclic voltammograms of 10 mM 4-(1,4-dioxabutyl)-2,2,6,6-tetramethylpiperidine-1-oxyl (TEMPO-EG1) in a non-aqueous electrolyte (1.5 M LiPF6 in a mixture of ethylene carbonate (EC) and ethyl methyl carbonate (EMC), 3:7 (v/v), respectively) at various scan rates given in mV/s. In FIG. 3, the cyclic voltammograms were measured at various rates with iR-correction applied. A glassy carbon electrode was used as the working electrode, while lithium metal strips were used as the counter and reference electrodes.
FIG. 4 provides cyclic voltammograms of 10 mM 4-(1,4,7-trioxaoctyl)-2,2,6,6-tetramethylpiperidine-1-oxyl (TEMPO-EG2) in a non-aqueous electrolyte (1.5 M LiPF6 in a mixture of ethylene carbonate (EC) and ethyl methyl carbonate (EMC), 3:7 (v/v), respectively) at various scan rates given in mV/s. In FIG. 4, the cyclic voltammograms were measured at various rates with iR-correction applied. A glassy carbon electrode was used as the working electrode, while lithium metal strips were used as the counter and reference electrodes.
FIG. 5 provides cyclic voltammograms of 10 mM 4-(1,4,7,10-tetraoxaundecyl)-2,2,6,6-tetramethylpiperidine-1-oxyl (TEMPO-EG3) in a non-aqueous electrolyte (1.5 M LiPF6 in a mixture of ethylene carbonate (EC) and ethyl methyl carbonate (EMC), 3:7 (v/v), respectively) at various scan rates given in mV/s. In FIG. 5, the cyclic voltammograms were measured at various rates with iR-correction applied. A glassy carbon electrode was used as the working electrode, while lithium metal strips were used as the counter and reference electrodes.

A short description of series [3]: Viscosity measurement with RHEOSENSE microfluidic MEMS viscometer. Particulars: neat liquid, 23.4° C., shear rates 500-5000 s^−1 (EG1, EG2) or 100-4000 s^−1 (EG3). The series is classed as physicochemical. Here is the method:
The viscosities of liquid TEMPO derivatives were determined at 23.4° C. using a RHEOSENSE microfluidic and micro-electro-mechanical-systems (MEMS) viscometer. The RHEOSENSE viscometer is based on the viscometer-rheometer-on-a-chip (VROC) technology. For TEMPO-EG1 and EG2, shear rates were swept from 500 s^−1 to 5000 s^−1, while the viscosity of TEMPO-EG3 was measured from 100 s^−1 to 4000 s^−1. […] Longer glycol ether chains lead to increases in viscosity, but the impact differs drastically.

Series [4] in a line: Cyclic voltammetry in aqueous electrolytes. In kind it is physicochemical. To be noted: for redox potential: Pt disk working electrode, Pt coil counter. The method, then: Cyclic voltammograms of 10 mM TEMPO-EG3 in an aqueous electrolyte (1 M aqueous sulfuric acid) were measured at various scan rates given in mV/s. A Pt disk was used as the working electrode, while the counter electrode was a Pt coil and the reference electrode was Ag/AgCl.
Cyclic voltammograms of 10 mM TEMPO-EG3 in an aqueous electrolyte (1M aqueous sodium chloride) were measured at various scan rates given in mV/s. A Pt disk was used as the working electrode, while the counter electrode was a Pt coil and the reference electrode was Ag/AgCl.

In the case of `COCCOc1cc(C(C)(C)C)c(OC)cc1C(C)(C)C` [DBMMEB, 1,4-di-tert-butyl-2-methoxy-5-(2-rnethoxyethoxy)benzene], the solubility in series [1] was 600 mM (≈ 177 mg/mL).

`COCCOCCOC1CC(C)(C)N([O])C(C)(C)C1` [TEMPO-EG2, 4-(3,6-dioxaheptyloxy)-2,2,6,6-tetramethylpiperidine-1-oxyl]: the redox potential in series [2] turned out to be 3.53 V vs. Li/Li^+. Also, the viscosity in series [3] amounted to 10.88 mPa·s.

For the compound `COCCOC1CC(C)(C)N([O])C(C)(C)C1` [TEMPO-EG1, 4-(2-methoxyethoxy)-2,2,6,6-tetramethylpiperidine-1-oxyl], in series [2], the redox potential turned out to be 3.53 V vs. Li/Li^+. In addition, the viscosity in series [3] turned out to be 10.23 mPa·s.

`COCCOCCOCCOC1CC(C)(C)N([O])C(C)(C)C1` [TEMPO-EG3, 4-(3,6,9-trioxadecyloxy)-2,2,6,6-tetramethylpiperidine-1-oxyl]: the figures for the redox potential in series [2], in series [4] (10 mM in 1M aqueous sodium chloride (neutral electrolyte)) and in series [4] (10 mM in 1 M aqueous sulfuric acid (acidic electrolyte)) were 3.53 V vs. Li/Li^+, “about 0.59 V vs. Ag/AgCl” and “about 0.55 V vs. Ag/AgCl”, respectively. In series [4] (cyclic voltammetry in common aqueous electrolytes), the electrochemical reversibility entry is given as “excellent electrochemical reversibility”. Moreover, in series [3], the viscosity is 21.30 mPa·s.

These data come from patent publication US11271237B2, “Organic redox molecules for flow batteries” (UCHICAGO ARGONNE, LLC, priority 2019, dated 2022).
